Laboratory results taken from patent US20140200265A1, “USAGE OF 1,3,5,7-TETRAHYDROXY-8-ISOPRENYLXANTHONE FOR TREATING INFLAMMATION” (Hong Kong Baptist University, priority 2013, published 2014).
≈ marks a conversion by molar mass, not a printed value. Like-named read-outs stand apart in the source and are kept apart here.

Key:
[1] = tested on: NO production in LPS and IFN-γ stimulated RAW264.7 cells; test: Assay for NO accumulation in stimulated macrophages (Griess reaction); type: cell-based; details: Mus musculus, 24 hours; for IC50: 10 U/ml IFN-γ and 100 ng/ml LPS
Protocol: RAW264.7 were maintained in RPMI 1640 medium supplemented with 10% FBS at 37° C. in a humidified 5% CO2 atmosphere. Cells were plated in a 96-well plate (5×10^3 cells/well) and allowed to attach overnight. The cells were then stimulated with 10 U/ml of IFN-γ and 100 ng/ml of LPS for 24 hours in the presence or absence of tested compound with final concentration of 50, 25, 12.5, 6.25, 3.125 μg/mL, and Indometacin as positive drug.
iNOS function was analyzed with Griess reaction and was applied for measurement of nitrite concentration in the culture supernatant. Briefly, 100 μl/well of sample was incubated with equal volume of Griess solution at room temperature for 10 min. The absorbance was evaluated at 540 nm using a calibration curve with a sodium nitrite standard. Percent inhibition was expressed as [1-(NO level of sample/NO level of vehicle treated-control)]×100 (Table 1).

[2] = tested on: Candida albicans secreted aspartic proteases (SAP); details: Planta Med. 2002; 68(1):49-54; cited from earlier work
[3] = tested on: miR-155 expression in stimulated RAW264.7 cells; test: Assay for microRNA155 expression in stimulated macrophages (qRT-PCR); type: cell-based; details: RAW264.7 cells, 1, 2, 4 μg/mL, 24 hours, FIG. 2
Protocol: RAW264.7 cells were pretreated with tested sample (1,2,4 μg/mL,) for 1 hour and then stimulated for 24 hours. The cells were harvested. Total RNA was extracted and RNA concentrations were determined. Quantitative RT-PCR analyses on miRNAs were performed using TaqMan miR NA assays (Applied Biosystems, USA). 50 ng of RNA per reaction was subjected for RT reaction. RT reaction was carried out using the following conditions: 16° C. for 30 minutes, 42° C. for 30 minutes, and 85° C. for 5 minutes. Expression levels of the miRNAs were determined by qRT-PCR using TaqMan Expression Assays (Applied Biosystems, USA). RNU6 endogenous control was used for normalization, and expression levels were presented as ΔCt with standard deviation (FIG. 2).
As miR-155 plays an important role in the innate immune response or inflammation, the effect of 1,3,5,7-tetrahydroxy-8-isoprenylxanthone on the expression of miR-155 by qRT-PCR was evaluated. In FIG. 2, the cells were stimulated with 100 ng/ml of LPS and 10 U/ml of IFN-γ only or LPS plus different concentrations (1,2,4 μg/mL) of sample for 24 hours. Total RNA was isolated and the expression of miRNA-155 was determined by qRT-PCR. […] RNU6B was used here as an endogenous control. The data represent the mean±SD of triplicate experiments. **p<0.01 compared with the LPS plus IFN-γ.

For `COc1ccc2c(c1)c(CC(=O)O)c(C)n2C(=O)c1ccc(Cl)cc1` [Indometacin, reference compound], the inhibition at 1 µg/mL ([1]; 1 μg/mL, IFN-γ and LPS, read-out: The inhibitory effect on NO accumulation (percent inhibition)) was 46.5%.

For `CC(C)=CCc1c(O)cc(O)c2oc3cc(O)cc(O)c3c(=O)c12` [1,3,5,7-tetrahydroxy-8-isoprenylxanthone], the “IC50 against Candida albicans secreted aspartic proteases (SAP)” value [2] is given as 25 µg/mL (≈ 76.1 µM), the “Effect on LPS plus IFN-γ-induced miR-155 expression” value [3] is given as “reduced LPS plus IFN-γ-induced miR-155 expression in a dose-dependent manner” and the IC50 ([1]; read-out: The inhibitory effect on NO accumulation, IC50) is given as 5.06 µM. The IC50 ([1]; read-out: The inhibitory effect on NO accumulation, IC50(μg/mL)) was 1.66 µg/mL.
